Read-outs that look alike come from different tables or passages of the source.
What was measured:
[1] = test system: breast adenocarcinoma (MCF-7); assay: MTT cytotoxicity assay, MCF-7; settings: Homo sapiens, MCF7, read-out: IC50 MCF-7
hepatoblastoma (HePG-2) = assay: MTT cytotoxicity assay, HePG-2; settings: Homo sapiens, HepG2, read-out: IC50 HePG-2
[2] = test system: human colorectal carcinoma (HCT-116); assay: MTT cytotoxicity assay, HCT-116; settings: Homo sapiens, HCT-116, read-out: IC50 HCT-116
[3] = test system: WI-38 normal fibroblast cell line; assay: MTT cytotoxicity against normal human cells; format: cell-based; settings: Homo sapiens
Procedure: The evaluation was conducted using a 3-(4,5-dimethylthiazol-2-yl)-2,5-diphenyltetrazolium bromide (MTT) assay, as described by the authors of [50, 51]. The cell lines were obtained from ATCC. For comparative purposes, standard drugs, such as doxorubicin and erlotinib, were employed.

[4] = test system: HCT-116, HePG-2, and MCF-7; assay: MTT cytotoxicity, summary over the examined cancer cell lines; settings: Homo sapiens, read-out: IC50 range against the selected cell lines
[5] = test system: anti-apoptotic protein BCL-2 in MCF-7; assay: BCL-2 expression in MCF-7 cells (ELISA); format: cell-based, human
Procedure: (§1) Apoptosis is regulated by intrinsic pathways such as the B-cell lymphoma-2 (BCL-2) family. […] MCL-1, one of the BCL-2 family members, is likely to have a significant role in cell death. The expression of MCL-1 and BCL-2 in MCF-7 cells treated with different concentrations was studied.
(§2) Apoptosis of the MCF-7 cancer cell line was measured using the Human MCL1eia kit (ELISA Kit) for the MCL-1 enzyme assay and the Invitrogen Zymed® Bcl-2 ELISA Kit for the BCL-2 enzyme assay. The ROBONIK P2000 ELISA READER was used for analysis.

[6] = test system: anti-apoptotic protein MCL-1 in MCF-7; assay: MCL-1 expression in MCF-7 cells (ELISA); format: cell-based, human
Procedure: as §1, §2

MCF-7 cell line = assay: Cell cycle analysis (propidium iodide, flow cytometry); format: cell-based, human
From the text: Cell cycle analysis is used to quantify DNA content distribution via flow cytometry at various cell cycle stages (pre-G1, G1, S, and G2/M). Compound 24 was selected to analyze its effect on cell cycle progression in the MCF-7 cell line at different concentrations.
Cancer cell line MCF-7 was stained with ab139418_Propidium Iodide (DNA stain) and analyzed using a FACSCalibur flow cytometer.

| SMILES | IC50 [1] [µM] | IC50 (hepatoblastoma (HePG-2)) [µM] | IC50 [2] [µM] | other results |
| --- | --- | --- | --- | --- |
| CC(=NNC(=O)CN1C(=O)NC(c2ccccc2)(c2ccccc2)C1=O)c1ccccn1 [Compound 20, 2-(2,5-Dioxo-4,4-diphenylimidazolidin-1-yl)-N′-(1-(pyridin-2-yl)ethylidene)acetohydrazide] | 32.4 ± 1.9 | 49.1 ± 2.8 | 46.7 ± 2.7 | – |
| CC(=NNC(=O)CN1C(=O)NC(c2ccccc2)(c2ccccc2)C1=O)c1cccs1 [Compound 26, 2-(2,5-Dioxo-4,4-diphenylimidazolidin-1-yl)-N′-(1-(thiophen-2-yl)ethylidene)acetohydrazide] | 76.8 ± 4.2 | 32.3 ± 2.2 | 87.5 ± 4.6 | – |
| CC(=NNC(=O)CN1C(=O)NC(c2ccccc2)(c2ccccc2)C1=O)c1cccc2ccccc12 [Compound 23, 2-(2,5-Dioxo-4,4-diphenylimidazolidin-1-yl)-N′-(1-(naphthalen-1-yl)ethylidene)acetohydrazide] | 28.1 ± 1.7 | 31.8 ± 2.1 | 34.4 ± 2.3 | – |
| CC(=NNC(=O)CN1C(=O)NC(c2ccccc2)(c2ccccc2)C1=O)c1ccncc1 [Compound 22, 2-(2,5-Dioxo-4,4-diphenylimidazolidin-1-yl)-N′-(1-(pyridin-4-yl)ethylidene)acetohydrazide] | 13.1 ± 1.1 | 17.2 ± 1.6 | 26 ± 1.9 | – |
| CC(=NNC(=O)CN1C(=O)NC(c2ccccc2)(c2ccccc2)C1=O)c1ccc(Cl)s1 [Compound 27, N′-(1-(5-Chlorothiophen-2-yl)ethylidene)-2-(2,5-dioxo-4,4-diphenylimidazolidin-1-yl)acetohydrazide] | 19.7 ± 1.5 | 16.8 ± 1.6 | 33.2 ± 2.2 | – |
| COc1cc(C(C)=NNC(=O)CN2C(=O)NC(c3ccccc3)(c3ccccc3)C2=O)cc(OC)c1OC [Compound 18, 2-(2,5-Dioxo-4,4-diphenylimidazolidin-1-yl)-N′-(1-(3,4,5-trimethoxyphenyl)ethylidene)acetohydrazide] | 26 ± 1.6 | 37.2 ± 2.3 | 39.6 ± 2.4 | IC50 ([3]; normal fibroblast WI-38, read-out: IC50 WI-38): 60.8 µM |
| CC(=NNC(=O)CN1C(=O)NC(c2ccccc2)(c2ccccc2)C1=O)c1ccc(C(F)(F)F)cc1 [Compound 12, 2-(2,5-Dioxo-4,4-diphenylimidazolidin-1-yl)-N′-(1-(4-(trifluoromethyl)phenyl)ethylidene)acetohydrazide] | 45.8 ± 2.4 | 47.7 ± 2.7 | 52.5 ± 3 | – |
| CC(=NNC(=O)CN1C(=O)NC(c2ccccc2)(c2ccccc2)C1=O)c1ccc(C)cc1 [Compound 9, 2-(2,5-Dioxo-4,4-diphenylimidazolidin-1-yl)-N′-(1-(p-tolyl)ethylidene)acetohydrazide] | 69 ± 3.9 | 29.7 ± 2.1 | 71.2 ± 3.8 | – |
| CC(=NNC(=O)CN1C(=O)NC(c2ccccc2)(c2ccccc2)C1=O)c1ccc([N+](=O)[O-])cc1 [Compound 19, 2-(2,5-Dioxo-4,4-diphenylimidazolidin-1-yl)-N′-(1-(4-nitrophenyl)ethylidene)acetohydrazide] | 20.4 ± 1.5 | 19.9 ± 1.8 | 31.3 ± 2.1 | – |
| CC(=NNC(=O)CN1C(=O)NC(c2ccccc2)(c2ccccc2)C1=O)c1ccco1 [Compound 25, 2-(2,5-Dioxo-4,4-diphenylimidazolidin-1-yl)-N′-(1-(furan-2-yl)ethylidene)acetohydrazide] | 47.3 ± 2.6 | 34.6 ± 2.1 | 49.9 ± 2.9 | – |
| COc1cccc2c1C(=O)c1c(O)c3c(c(O)c1C2=O)C[C@@](O)(C(=O)CO)C[C@@H]3O[C@H]1C[C@H](N)[C@H](O)[C@H](C)O1 [Doxorubicin, reference compound] | – | 4.5 ± 0.2 | – | IC50 [4]: 4.17 to 5.23 µM |
| COc1ccc(C(C)=NNC(=O)CN2C(=O)NC(c3ccccc3)(c3ccccc3)C2=O)cc1OC [Compound 17, N′-(1-(3,4-Dimethoxyphenyl)ethylidene)-2-(2,5-dioxo-4,4-diphenylimidazolidin-1-yl)acetohydrazide] | 15.7 ± 1.3 | 19.6 ± 1.7 | 26.8 ± 2 | – |
| C#Cc1cccc(Nc2ncnc3cc(OCCOC)c(OCCOC)cc23)c1 [Erlotinib, reference compound] | 5.18 ± 0.4 | 7.9 ± 0.6 | 8.53 ± 0.5 | BCL-2 expression level ([5]; 2 µM): 13.96 ng/mL; BCL-2 expression level ([5]; 10 μM): 3.73 ng/mL; IC50 [4]: 5.18 to 8.53 µM; IC50 ([3]; WI-38, read-out: IC50 WI-38): 46.5 µM; MCL-1 expression level ([6]; 2 µM): 560.59 pg/mL; MCL-1 expression level ([6]; 10 μM): 162.37 pg/mL; Comment (cell cycle arrest) (MCF-7 cell line): Cell cycle arrest at G2/M; %G0–G1 (MCF-7 cell line; 2 µM): 46.12%; %G2/M (MCF-7 cell line; 2 µM): 31.05%; %S (MCF-7 cell line; 2 µM): 22.83%; %G0–G1 (MCF-7 cell line; 10 μM): 35.89%; %G2/M (MCF-7 cell line; 10 μM): 48.39%; %S (MCF-7 cell line; 10 μM): 15.72%; Comment (cell cycle arrest) (MCF-7 cell line; listed as erlotinib): cell cycle arrest appeared at the G2/M phase |
| CC(=NNC(=O)CN1C(=O)NC(c2ccccc2)(c2ccccc2)C1=O)c1ccc(F)cc1 [Compound 11, 2-(2,5-Dioxo-4,4-diphenylimidazolidin-1-yl)-N′-(1-(4-fluorophenyl)ethylidene)acetohydrazide] | 14.2 ± 1.2 | 21.1 ± 1.8 | 28.3 ± 2.1 | – |
| COc1ccccc1C(C)=NNC(=O)CN1C(=O)NC(c2ccccc2)(c2ccccc2)C1=O [Compound 14, 2-(2,5-Dioxo-4,4-diphenylimidazolidin-1-yl)-N′-(1-(2-methoxyphenyl)ethylidene)acetohydrazide] | 59.1 ± 3.4 | 63.3 ± 3.8 | 74 ± 3.9 | – |
| COc1ccc(C(C)=NNC(=O)CN2C(=O)NC(c3ccccc3)(c3ccccc3)C2=O)cc1 [Compound 16, 2-(2,5-Dioxo-4,4-diphenylimidazolidin-1-yl)-N′-(1-(4-methoxyphenyl)ethylidene)acetohydrazide] | 35.8 ± 2.1 | 27.3 ± 2 | 36.5 ± 2.4 | – |
| CC(=NNC(=O)CN1C(=O)NC(c2ccccc2)(c2ccccc2)C1=O)c1ccccc1 [Compound 7, 2-(2,5-Dioxo-4,4-diphenylimidazolidin-1-yl)-N′-(1-phenylethylidene)acetohydrazide] | 38.3 ± 2.2 | 55.8 ± 3.3 | 47.5 ± 2.8 | – |
| CC(=NNC(=O)CN1C(=O)NC(c2ccccc2)(c2ccccc2)C1=O)c1ccccc1C [Compound 8, 2-(2,5-Dioxo-4,4-diphenylimidazolidin-1-yl)-N′-(1-(o-tolyl)ethylidene)acetohydrazide] | 34.1 ± 2 | 25.4 ± 1.8 | 37.6 ± 2.3 | – |
| COc1cccc(C(C)=NNC(=O)CN2C(=O)NC(c3ccccc3)(c3ccccc3)C2=O)c1 [Compound 15, 2-(2,5-Dioxo-4,4-diphenylimidazolidin-1-yl)-N′-(1-(3-methoxyphenyl)ethylidene)acetohydrazide] | 55.3 ± 3.2 | 45.1 ± 2.5 | 53.9 ± 3.1 | – |

Reference: article PMC12030650, “Synthesis, Antitumor Activities, and Apoptosis-Inducing Activities of Schiff’s Bases Incorporating Imidazolidine-2,4-dione Scaffold: Molecular Docking Studies and Enzymatic Inhibition Activities” (Pharmaceuticals, 2025)
